The values that follow come from patent US10632125B2, “MTH1 inhibitors for treatment of inflammatory and autoimmune conditions” (THOMAS HELLEDAYS STIFTELSE FÖR MEDICINSK FORSKNING, priority 2014, dated 2020).

The structures appear in SMILES notation. A value given as a limit tells only on which side of the number the result lay.

This experiment deals with MTH1 (Homo sapiens, UniProt P36639). The experiment can be described thus: MTH1 enzymatic assay (malachite green, coupled to pyrophosphatase). It is filed as biochemical. The settings on record: dGTP 100 μM, MTH1 6 nM; 96- or 384-well format; read-out: IC50.
Consider `Cc1cccc(-c2cc(NCCNc3cc(-c4cccc(C)c4C)nc(N)n3)nc(N)n2)c1C` [Example 561, 4-N-(2-{[2-amino-6-(2,3-dimethylphenyl)pyrimidin-4-yl]amino}ethyl)-6-(2,3-dimethylphenyl)pyrimidine-2,4-diamine], for which the half-inhibitory concentration (IC50) (usually the concentration at which inhibition is half-maximal) was below 0.2 µM.

Regarding `Cc1c(Cl)cccc1-c1cc(NC2CC2C)nc(N)n1` (stereo not drawn) [Example 581, 6-(3-chloro-2-methylphenyl)-4-N-(2-methylcyclopropyl)pyrimidine-2,4-diamine], the IC50 was below 0.2 µM.

For the molecule `Cc1cccc(-c2cc(NC3CNC3)nc(N)n2)c1C` [Example 589, 4-N-(azetidin-3-yl)-6-(2,3-dimethylphenyl)pyrimidine-2,4-diamine], the IC50 was in the range of 2 to 10 µM.

Take `Cc1c(Cl)cccc1-c1cc(NCCc2ccc(NC(=O)C3CC3)cc2)nc(N)n1` [Example 597, N-[4-(2-{[2-amino-6-(3-chloro-2-methylphenyl)pyrimidin-4-yl]amino}ethyl)phenyl]cyclopropanecarboxamide]: the IC50 was below 0.2 µM.

Consider `Cc1cccc(-c2cc(NCCc3cccs3)nc(N)n2)c1C` [Example 598, 6-(2,3-dimethylphenyl)-4-N-[2-(thiophen-2-yl)ethyl]pyrimidine-2,4-diamine], for which the concentration for half-maximal inhibition (IC50) was below 0.2 µM.

Regarding `Cc1c(Cl)cccc1-c1cc(NCCc2ccc(Cl)c(Cl)c2)nc(N)n1` [Example 599, 6-(3-chloro-2-methylphenyl)-4-N-[2-(3,4-dichlorophenyl)ethyl]pyrimidine-2,4-diamine], the 50% inhibitory concentration (IC50) was below 0.2 µM.

On to `Cc1c(Cl)cccc1-c1cc(NCCc2ccc(Cl)cc2Cl)nc(N)n1` [Example 600, 6-(3-chloro-2-methylphenyl)-4-N-[2-(2,4-dichlorophenyl)ethyl]pyrimidine-2,4-diamine], for which the IC50 was below 0.2 µM.

In the case of `Cc1c(Cl)cccc1-c1cc(NCCc2ccc(C#N)cc2)nc(N)n1` [Example 625, 4-(2-{[2-amino-6-(3-chloro-2-methylphenyl)pyrimidin-4-yl]amino}ethyl)benzonitrile], the concentration for half-maximal inhibition (IC50) is below 0.2 µM.

For `CNc1cc(C#Cc2ccccc2)nc(N)n1` [Example 626, 4-N-methyl-6-(2-phenylethynyl)pyrimidine-2,4-diamine], the IC50 was below 0.2 µM.

With `Cc1c(Cl)cccc1-c1cc(NCCNc2ccc3c(=O)[nH]cnc3c2)nc(N)n1` [Example 632, 7-[2-[[2-amino-6-(3-chloro-2-methyl-phenyl)pyrimidin-4-yl]amino]ethylamino]-3H-quinazolin-4-one], the IC50 was below 0.2 µM.

Regarding `Cc1c(Cl)cccc1-c1cc(NCCc2ccc(N)cc2)nc(N)n1` [Example 642, N4-[2-(4-aminophenyl)ethyl]-6-(3-chloro-2-methyl-phenyl)pyrimidine-2,4-diamine], the half-maximal inhibitory concentration (IC50) was below 0.2 µM.

Turning to `Cc1c(Cl)cccc1-c1cc(NCCNS(=O)(=O)c2cccc(F)c2)nc(N)n1` [Example 660, N-[2-[[2-amino-6-(3-chloro-2-methyl-phenyl)pyrimidin-4-yl]amino]ethyl]-3-fluoro-benzenesulfonamide], the IC50 was below 0.2 µM.

As to `Cc1c(Cl)cccc1-c1cc(NCCNC(=O)Nc2cccc(F)c2)nc(N)n1` [Example 663, 1-[2-[[2-amino-6-(3-chloro-2-methyl-phenyl)pyrimidin-4-yl]amino]ethyl]-3-(3-fluorophenyl)urea], the IC50 is below 0.2 µM.

For `Cc1c(Cl)cccc1-c1cc(NC2CN(c3ccc(S(N)(=O)=O)cc3)C2)nc(N)n1` [Example 667], the half-maximal inhibitory concentration (IC50) was 2 to 10 µM.

As for `Cc1c(Cl)cccc1-c1cc(NCCCNC(=O)OC(C)(C)C)nc(N)n1` [Example 668, tert-butyl N-[3-[[2-amino-6-(3-chloro-2-methyl-phenyl)pyrimidin-4-yl]amino]propyl]carbamate], the 50% inhibitory concentration (IC50) is below 0.2 µM.

For `Cc1c(Cl)cccc1-c1cc(NCCCCc2ccccc2)nc(N)n1` [Example 680, 6-(3-chloro-2-methyl-phenyl)-N4-(4-phenylbutyl)pyrimidine-2,4-diamine], the IC50 is below 0.2 µM.

As to `Cc1c(Cl)cccc1-c1cc(NCCC2=CCCCC2)nc(N)n1` [Example 681, 6-(3-chloro-2-methyl-phenyl)-N4-[2-(cyclohexen-1-yl)ethyl]pyrimidine-2,4-diamine], the half-inhibitory concentration (IC50) was below 0.2 µM.

With `C=CCCNc1cc(-c2cccc(Cl)c2C)nc(N)n1` [Example 682, N4-but-3-enyl-6-(3-chloro-2-methyl-phenyl)pyrimidine-2,4-diamine], the half-inhibitory concentration (IC50) was below 0.2 µM.

As to `Cc1c(Cl)cccc1-c1cc(NCCNc2cccc3c(S(=O)(=O)O)cccc23)nc(N)n1` [Example 683, 5-[2-[[2-amino-6-(3-chloro-2-methyl-phenyl)pyrimidin-4-yl]amino]ethylamino]naphthalene-1-sulfonic acid], the 50% inhibitory concentration (IC50) was below 0.2 µM.

As to `Cc1c(Cl)cccc1-c1cc(NCCOCC2CC2)nc(N)n1` [Example 684, 6-(3-chloro-2-methyl-phenyl)-N4-[2-(cyclopropylmethoxy)ethyl]pyrimidine-2,4-diamine], the half-maximal inhibitory concentration (IC50) was below 0.2 µM.

Take `Cc1c(Cl)cccc1-c1cc(NCC=C(F)F)nc(N)n1` [Example 686, 6-(3-chloro-2-methyl-phenyl)-N4-(3,3-difluoroallyl)pyrimidine-2,4-diamine]: the IC50 is below 0.2 µM.

For the molecule `Cc1c(Cl)cccc1-c1cc(NCCC(F)(F)Br)nc(N)n1` [Example 687, N4-(3-bromo-3,3-difluoro-propyl)-6-(3-chloro-2-methyl-phenyl)pyrimidine-2,4-diamine], the IC50 was below 0.2 µM.

On to `Cc1c(Cl)cccc1-c1cc(NCCSCCc2ccccc2)nc(N)n1` [Example 690, 6-(3-chloro-2-methylphenyl)-N4-{2-[(2-phenylethyl)sulfanyl]ethyl}pyrimidine-2,4-diamine], for which the half-inhibitory concentration (IC50) was below 0.2 µM.

With `Cc1c(Cl)cccc1-c1cc(NCC[S+]([O-])CCc2ccccc2)nc(N)n1` (stereo not drawn) [Example 692, 6-(3-chloro-2-methyl-phenyl)-N4-[2-(2-phenylethylsulfinyl)ethyl]pyrimidine-2,4-diamine], the IC50 fell in the range of 2 to 10 µM.

As for `Cc1cc(CSCCNc2cc(-c3cccc(Cl)c3C)nc(N)n2)no1` [Example 700, 6-(3-chloro-2-methyl-phenyl)-N4-[2-[(5-methylisoxazol-3-yl)methylsulfanyl]ethyl]pyrimidine-2,4-diamine], the IC50 is below 0.2 µM.

On to `Cc1noc(C)c1CCNc1cc(-c2cccc(Cl)c2C)nc(N)n1` [Example 701, 6-(3-chloro-2-methyl-phenyl)-N4-[2-(3,5-dimethylisoxazol-4-yl)ethyl]pyrimidine-2,4-diamine], for which the 50% inhibitory concentration (IC50) is below 0.2 µM.

As to `CCCNc1cc(-c2cccc(Cl)c2C)nc(N)n1` [Example 702, 6-(3-chloro-2-methyl-phenyl)-N4-propyl-pyrimidine-2,4-diamine], the IC50 was below 0.2 µM.

For `CCCCNc1cc(-c2cccc(Cl)c2C)nc(N)n1` [Example 703, N4-butyl-6-(3-chloro-2-methyl-phenyl)pyrimidine-2,4-diamine], the IC50 was below 0.2 µM.

Consider `COCCNc1cc(-c2cccc(Cl)c2C)nc(N)n1` [Example 704, 6-(3-chloro-2-methyl-phenyl)-N4-(2-methoxyethyl)pyrimidine-2,4-diamine], for which the IC50 was below 0.2 µM.

`CCOCCCNc1cc(-c2cccc(Cl)c2C)nc(N)n1` [Example 705, 6-(3-chloro-2-methyl-phenyl)-N4-(3-ethoxypropyl)pyrimidine-2,4-diamine]: the IC50 was below 0.2 µM.

Take `Cc1c(Cl)cccc1-c1cc(NCC2CCOCC2)nc(N)n1` [Example 706, 6-(3-chloro-2-methyl-phenyl)-N4-(tetrahydropyran-4-ylmethyl)pyrimidine-2,4-diamine]: the IC50 was below 0.2 µM.

With `Cc1c(Cl)cccc1-c1cc(NCC2CCCO2)nc(N)n1` (stereo not drawn) [Example 707, 6-(3-chloro-2-methyl-phenyl)-N4-(tetrahydrofuran-2-ylmethyl)pyrimidine-2,4-diamine], the IC50 was below 0.2 µM.

Take `CC(C)=CCC/C(C)=C/CNc1cc(-c2cccc(Cl)c2C)nc(N)n1` [Example 708, 6-(3-chloro-2-methyl-phenyl)-N4-[(2E)-3,7-dimethylocta-2,6-dienyl]pyrimidine-2,4-diamine]: the IC50 is below 0.2 µM.

Consider `Cc1c(Cl)cccc1-c1cc(NCC(C)C)nc(N)n1` [Example 709, 6-(3-chloro-2-methyl-phenyl)-N4-isobutyl-pyrimidine-2,4-diamine], for which the IC50 was below 0.2 µM.

`Cc1c(Cl)cccc1-c1cc(NCCc2ccccc2)nc(N)n1` [Example 713, 6-(3-chloro-2-methyl-phenyl)-N4-(2-phenylethyl)pyrimidine-2,4-diamine]: the half-inhibitory concentration (IC50) was below 0.2 µM.

Take `Cc1c(Cl)cccc1-c1cc(NCCc2ccncc2)nc(N)n1` [Example 714, 6-(3-chloro-2-methyl-phenyl)-N4-[2-(4-pyridyl)ethyl]pyrimidine-2,4-diamine]: the 50% inhibitory concentration (IC50) is below 0.2 µM.

As to `Cc1c(Cl)cccc1-c1cc(NCCc2ccccn2)nc(N)n1` [Example 715, 6-(3-chloro-2-methyl-phenyl)-N4-[2-(2-pyridyl)ethyl]pyrimidine-2,4-diamine], the IC50 is below 0.2 µM.

As to `Cc1c(Cl)cccc1-c1cc(NC/C(=C\F)CCc2ccc(F)cc2)nc(N)n1` [Example 721, 6-(3-chloro-2-methyl-phenyl)-N4-[(2Z)-2-(fluoromethylene)-4-(4-fluorophenyl)butyl]pyrimidine-2,4-diamine], the half-inhibitory concentration (IC50) is below 0.2 µM.

With `Cc1cc(C[S+]([O-])CCNc2cc(-c3cccc(Cl)c3C)nc(N)n2)no1` (stereo not drawn) [Example 725, 6-(3-chloro-2-methyl-phenyl)-N4-[2-[(5-methylisoxazol-3-yl)methylsulfinyl]ethyl]pyrimidine-2,4-diamine], the IC50 was in the range of 2 to 10 µM.

In the case of `Cc1c(Cl)cccc1-c1cc(NCCc2ccc(O)c(O)c2)nc(N)n1` [Example 727, 4-[2-[[2-amino-6-(3-chloro-2-methyl-phenyl)pyrimidin-4-yl]amino]ethyl]benzene-1,2-diol], the concentration for half-maximal inhibition (IC50) was below 0.2 µM.

Consider `Cc1c(Cl)cccc1-c1cc(NCCc2cc(O)c(O)c(O)c2)nc(N)n1` [Example 728, 5-[2-[[2-amino-6-(3-chloro-2-methyl-phenyl)pyrimidin-4-yl]amino]ethyl]benzene-1,2,3-triol], for which the IC50 was below 0.2 µM.

With `C=C(C)CNc1cc(-c2cccc(Cl)c2C)nc(N)n1` [Example 729, 6-(3-chloro-2-methyl-phenyl)-N4-(2-methylallyl)pyrimidine-2,4-diamine], the IC50 was below 0.2 µM.
